From patent US8951960B2, “Synergistic combination of DBNPA and polycyclic antibacterial peptide as biocide in bioethanol production” (Buckman Laboratories International, Inc., priority 2010, dated 2015)

What was measured:
Lactobacillus fermentans = experiment: Kull synergism test in 25% strength MRS broth, quantities producing endpoints; type: cell-based; conditions: Nisin alone, 37° C., 24 hours
Method: Lactobacilli MRS broth (25% strength) was prepared and dispensed in 10 ml amounts into test tubes and autoclaved for 20 minutes at 121° C. The biocides were added to the test tubes in the desired concentrations, and then 100 microliters of an overnight broth of Lactobacillus fermentans were added to the respective test tubes and incubated at 37° C. for 24 hours.
When the sum of QA/Qa and QB/Qb is greater than one, antagonism is indicated and when the sum is equal to one, additivity is indicated. When the sum of this value is less than one, synergism exists.

Lactobacillus plantarum = experiment: Corn mash ethanol fermentation infected with L. plantarum, treated with nonoxidizing biocide; type: cell-based; conditions: fermentation conditions typical of fuel-ethanol industry
Method: (§1) Experiments were conducted to evaluate the effectiveness of a nonoxidizing biocide as an antimicrobial agent for control of Lactobacillus infections in ethanol fermentation. The nonoxidizing biocide was BRONAM® 20 (20% 2,2-dibromo-3-nitrilopropionamide). The lactobacilli was L. plantarum. The yeast was Saccharomyces cereviseae. Corn mashes containing approximately 30% (w/w) dry solids were used.
For slurry preparation, the moisture of ground corn was determined gravimetrically using a moisture balance by measuring the mass loss that occurred upon drying. The amount of corn, deionized (DI) water, and enzyme needed to prepare 160 g of corn slurry at a total dry solids concentration of 30% (w/w) for each replicate was determined. […]
For fermentation, once the mash was cooled, the entire contents (approximately 160 g) of each Labomat beaker were transferred to a sterile 250-ml Erlenmeyer flask. The masses of the mash and flasks were recorded, and the mass of mash transferred to the fermentation flasks was calculated. […]
The L. plantarum culture was prepared for inoculation by growing throughout the day in 100-ml of MRS broth. […] The initial concentration of the bacteria was determined by plating serial dilutions of the culture on MRS agar containing cycloheximide and incubating at 32° C. for 2 days before counting colonies. […]

[1] = Persistence of intact biocide under fermentation tank conditions; type: physicochemical; conditions: conditions in the fermentation tank; based on laboratory work
Method: Under the conditions in the fermentation tank, DBNPA is expected to last intact only about 1-2 hours, based on laboratory work. The stillage, i.e., fermented unevaporated product (post “beer tank”) of distillation, is centrifuged, and dried (e.g., about 1 hour at about 250-300° F.), then the mixture is pumped over to a final tank where it is called the DDGS. DDGS is about ⅓ mass of the starting raw material for corn. The chemistry of DBNPA is not expected to endure and survive the centrifugation and heat of drying prior to entering distillers dried grains with solubles (DDGS) stage. In the corn-to-ethanol process, for example, DBNPA is expected to degrade to carbon dioxide and water vapor, and, as such, would have low environmental impact. […] The application of DBNPA avoids the use of antibiotics, which can remain stable throughout the process. The use of DBNPA makes the use of antibiotics unnecessary. The use of DBNPA is more economical since the cost of antibiotics (as the only treatment widely employed) can be relatively high and costly to the fermentation. […]

[2] = tested on: yeast (Saccharomyces cerevisiae); experiment: Effect of biocide on fermentation yeast in corn fermentation; type: cell-based
Method: as §1
A 0.2-g/ml suspension of yeast (Saccharomyces cerevisiae; Ethanol Red; Fermentis, Marcq-en-Baroeul, France) was prepared in a sterile 250-ml flask. This suspension was incubated and mixed for 20 minutes at 40° C. before inoculation into the fermentation flasks. […]
Each flask was mixed with an overhead agitator and samples were collected for the following measurements: yeast cell counts, final concentrations of substrates (glucose, DP2, DP3, and DP4+, where “DPx” represent glucose oligomers with “x” subunits), fermentation products (ethanol, glycerol, lactic acid, and acetic acid), total dry solids, and dissolved dry solids, and the density of the beer liquid phase. […] Samples were prepared for yeast cell counts by diluting at a factor of 100 in deionized water and staining with methylene blue to estimate viability then counted microscopically using a hemacytometer. The final concentrations of substrates and fermentation products were determined by HPLC. […]

Compound | Qa, concentration of Compound A acting alone which produced an endpoint (Lactobacillus fermentans; Example 2) [ppm] | Qa, concentration of Compound A acting alone which produced an endpoint (Lactobacillus fermentans; Example 3) [ppm] | effect on lactobacilli (Lactobacillus plantarum) | time the biocide lasts intact [1] [h] | effect on yeast [2]
Nisin | 1.0 | 1.0 |  |  | 
N#CC(Br)(Br)C(N)=O [2,2-dibromo-3-nitrilopropionamide] |  |  | kills the bacteria (lactobacilli) | 1 to 2 | does not kill the yeast
